Reference: article PMC9686568, “Novel Alligator Cathelicidin As-CATH8 Demonstrates Anti-Infective Activity against Clinically Relevant and Crocodylian Bacterial Pathogens” (Antibiotics, 2022)
Converted amounts (≈) assume the structure as drawn. Like-named read-outs stand apart in the source and are kept apart here. Residues, ends and D or L forms follow the SMILES beside them.

Experiments:
E. cloacae = format: cell-based, E. cloacae 218R1
Method: (§1) The following bacterial pathogens were used in this study: S. enterica subsp. enterica serovar Typhimurium ATCC 14028, E. coli O157:H7 [83], the clinical isolates S. aureus SAP0017 [84] and USA300 LAC [85], E. faecium #1-1 [85], A. baumannii Ab5075 [85] and E. cloacae 218R1 [85], as well as P. aeruginosa PAO1 [34], P. vulgaris HSC7200-T2 (Hancock Lab strain collection) and K. pneumoniae KPLN49 [85].
(§2) Overnight cultures were grown in LB at 37 °C with shaking at 250 rpm, except for E. faecium, which was grown in BHI medium.
(§3) The antimicrobial activity of the crocCATHs was evaluated with the broth microdilution method as described previously. MIC was defined as the first peptide or antibiotic concentration without visible bacterial growth. Reported values are the statistical mode of at least three independent experiments.

S. aureus = assay: MIC, broth microdilution in MHB; format: cell-based; settings: first concentration without visible growth, mode of at least three independent experiments
Method: as §1, §2, §3

K. pneumoniae = assay: MIC, broth microdilution in MHB; format: cell-based, K. pneumoniae KPLN49; settings: first concentration without visible growth, mode of at least three independent experiments
Method: as §1, §2, §3

A. baumannii = assay: MIC, broth microdilution in MHB; format: cell-based, A. baumannii Ab5075; settings: first concentration without visible growth, mode of at least three independent experiments
Method: as §1, §2, §3

P. aeruginosa = assay: MIC, broth microdilution in MHB; format: cell-based, P. aeruginosa PAO1; settings: first concentration without visible growth, mode of at least three independent experiments
Method: as §1, §2, §3

E. faecium = assay: MIC, broth microdilution in MHB; format: cell-based, E. faecium #1-1; settings: first concentration without visible growth, mode of at least three independent experiments
Method: as §1, §2, §3

E. coli = format: cell-based, E. coli O157:H7; settings: microdilution in MHB, first concentration without visible growth, mode of at least three independent experiments
Method: as §1, §2, §3

S. Typhimurium = format: cell-based, S. enterica subsp. enterica serovar Typhimurium ATCC 14028
Method: as §1, §2, §3

P. vulgaris = format: cell-based, P. vulgaris HSC7200-T2; settings: microdilution in MHB, first concentration without visible growth, mode of at least three independent experiments
Method: as §1, §2, §3

P. aeruginosa biofilm = format: cell-based, P. aeruginosa PAO1
Method: (§4) Bacterial biofilm inhibition assays were performed using a microtiter assay as described by Haney et al.. For E. cloacae, E. coli, P. aeruginosa and S. Typhimurium, assays were performed using BM2 minimal medium (62 mM potassium phosphate, 7 mM ammonium sulfate, 0.5 mM magnesium sulfate, pH 7.0) supplemented with 0.4% glucose (w/v). Antibiofilm activity against A. baumannii and S. aureus SAP0017 was evaluated in 10% TSB (v/v) media supplemented with 0.1% glucose (w/v), whereas 10% THB (v/v) medium was employed for P. vulgaris.
(§5) Data from at least three independent experiments were analyzed as the percentage of biofilm mass compared to the untreated control. After crystal violet staining, MBIC95 was then calculated for each peptide, defined as the minimal peptide concentration capable of inhibiting mean biofilm growth by at least 95% compared to the untreated control.

E. coli biofilm = format: cell-based, E. coli O157:H7; settings: BM2 minimal medium + 0.4% glucose, crystal violet, at least 95% inhibition of mean biofilm growth, at least three independent experiments
Method: as §4, §5

[1] = system: human bronchial epithelial (HBE) cells; assay: LDH release cytotoxicity assay; format: cell-based; settings: HBE cells (16HBE14o-); at the highest concentrations tested (5 and 10 μM); relative to Triton X-100 control
Method: Immortalized human bronchial epithelial (HBE) cells (16HBE14o-) were used for in vitro cytotoxicity experiments as described elsewhere.
(§6) Peptide-induced cytotoxicity was assessed by measuring the extracellular activity of the LDH enzyme using the Cytotoxicity Detection Kit (MilliporeSigma, Burlington, MA, USA) as previously described. The percentage of LDH release relative to the untreated (negative) and Triton X-100 (positive, 100% cytotoxicity) control was assessed for at least three biological replicates and recorded as percent cytotoxicity.

[2] = system: peripheral blood mononuclear cells (PBMCs); assay: LDH release cytotoxicity assay; format: cell-based; settings: human PBMCs; at the highest concentrations tested (5 and 10 μM); relative to Triton X-100 control
Method: Human PBMCs were isolated from human blood following the ethics protocols of the University of British Columbia, Canada. Consent was obtained from healthy volunteers before blood donation. Isolation and treatment of unstimulated PBMC was performed as previously described.
as §6

[3] = subcutaneous, 15 mg/kg, peptide alone, uninfected animals
Description: The antibacterial capacities of As-CATH8 and Gg-CATH5 were further evaluated in the murine skin infection/abscess model. Mice were inoculated with clinical isolates of S. aureus and A. baumannii, two frequent causes of human skin infections. […] Therefore, the peptides were considered non-toxic at the doses used.

Molecule | MIC (E. cloacae) | MIC (S. aureus) | MIC (K. pneumoniae) | MIC (A. baumannii) | MIC (P. aeruginosa) | MIC (E. faecium) | MIC (E. coli) | MIC (S. Typhimurium) | MIC (P. vulgaris) | MBIC95 (P. aeruginosa biofilm) | MBIC95 (E. coli biofilm) | MIC (S. Typhimurium; S. Typhimurium, microdilution in MHB, value in brackets of Table S4) | Cytotoxicity (LDH release) [1] | Cytotoxicity (LDH release) [2] | Tissue damage or peptide precipitation at the site of injection [3]
CC(C)C[C@H](NC(=O)[C@H](C)NC(=O)[C@@H](NC(=O)[C@H](CC(N)=O)NC(=O)[C@H](CCCNC(=N)N)NC(=O)CNC(=O)[C@@H](NC(=O)[C@H](CCCCN)NC(=O)[C@H](CCCNC(=N)N)NC(=O)[C@H](Cc1c[nH]c2ccccc12)NC(=O)[C@H](CC(N)=O)NC(=O)[C@@H](NC(=O)[C@H](CCCNC(=N)N)NC(=O)[C@@H](N)CCCCN)C(C)C)C(C)C)[C@@H](C)O)C(=O)NCC(=O)N[C@@H](C)C(=O)N[C@@H](CO)C(=O)N[C@@H](Cc1ccc(O)cc1)C(=O)N[C@H](C(=O)N[C@@H](CC(C)C)C(=O)N[C@@H](CO)C(=O)N[C@@H](Cc1ccccc1)C(=O)N[C@@H](CC(C)C)C(=O)NCC(=O)O)C(C)C [As-CATH7] (H-KRVNWRKVGRNTALGASYVLSFLG-OH) | 0.5 µM (≈ 1.35 µg/mL) | 4 µM (≈ 10.8 µg/mL) | 1 µM (≈ 2.69 µg/mL) | 0.25 µM (≈ 0.673 µg/mL) | 4 µM (≈ 10.8 µg/mL) | >64 µM | 2 µM (≈ 5.39 µg/mL) | 2 µM | >64 µM | > 172 µg/mL | 32 µM | – | – | – | –
CC[C@H](C)[C@H](NC(=O)[C@H](Cc1ccc(O)cc1)NC(=O)[C@@H]1CCCN1C(=O)[C@H](CC(C)C)NC(=O)[C@H](CC(C)C)NC(=O)[C@H](CCCCN)NC(=O)[C@H](CC(C)C)NC(=O)[C@H](C)NC(=O)[C@@H](NC(=O)[C@H](CCCNC(=N)N)NC(=O)CNC(=O)[C@@H](NC(=O)[C@H](CCCCN)NC(=O)[C@H](C)NC(=O)[C@H](Cc1c[nH]c2ccccc12)NC(=O)[C@H](CC(N)=O)NC(=O)[C@@H](NC(=O)[C@H](CCCNC(=N)N)NC(=O)[C@@H](N)CCCCN)C(C)C)C(C)C)[C@@H](C)O)C(=O)N[C@@H](Cc1ccccc1)C(=O)NCC(=O)O [As-CATH8] (H-KRVNWAKVGRTALKLLPYIFG-OH) | 0.5 µM (≈ 1.22 µg/mL) | 0.5 µM (≈ 1.22 µg/mL) | 0.5 µM (≈ 1.22 µg/mL) | 0.25 µM (≈ 0.608 µg/mL) | 1 µM (≈ 2.43 µg/mL) | >64 µM | 1 µM (≈ 2.43 µg/mL) | 1 µM | 4 µM (≈ 9.72 µg/mL) | – | 1 µM | – | – | – | –
CC[C@H](C)[C@H](NC(=O)[C@H](C)NC(=O)CNC(=O)[C@H](CC(N)=O)NC(=O)[C@H](CC(C)C)NC(=O)[C@@H](NC(=O)[C@H](CCCCN)NC(=O)[C@H](CCCCN)NC(=O)[C@H](Cc1c[nH]c2ccccc12)NC(=O)[C@H](Cc1c[nH]c2ccccc12)NC(=O)[C@H](CCCCN)NC(=O)[C@H](CCCNC(=N)N)NC(=O)[C@H](CCCNC(=N)N)NC(=O)[C@@H](N)[C@@H](C)O)C(C)C)C(=O)N[C@@H](CCCCN)C(=O)N[C@H](C(=O)N[C@@H](C)C(=O)N1CCC[C@H]1C(=O)N[C@@H](Cc1ccc(O)cc1)C(=O)N[C@H](C(=O)N[C@@H](CC(C)C)C(=O)N[C@@H](CC(=O)O)C(=O)O)[C@@H](C)CC)[C@@H](C)CC [Gg-CATH5] (H-TRRKWWKKVLNGAIKIAPYILD-OH) | – | 1 µM (≈ 2.67 µg/mL) | 0.5 µM (≈ 1.34 µg/mL) | 0.5 µM (≈ 1.34 µg/mL) | 1 µM (≈ 2.67 µg/mL) | >64 µM | 4 µM (≈ 10.7 µg/mL) | – | 8 µM (≈ 21.4 µg/mL) | – | 32 µM | – | – | – | –
CSCC[C@H](NC(=O)[C@@H](NC(=O)[C@H](Cc1ccc(O)cc1)NC(=O)[C@H](CO)NC(=O)[C@H](C)NC(=O)CNC(=O)[C@H](CC(C)C)NC(=O)CNC(=O)[C@@H](NC(=O)[C@H](CCCCN)NC(=O)[C@H](CCCNC(=N)N)NC(=O)[C@H](Cc1c[nH]c2ccccc12)NC(=O)[C@H](CC(N)=O)NC(=O)[C@@H](NC(=O)[C@H](CCCNC(=N)N)NC(=O)[C@@H](N)CCCCN)C(C)C)C(C)C)C(C)C)C(=O)N[C@@H](CO)C(=O)N[C@@H](Cc1c[nH]c2ccccc12)C(=O)N[C@@H](CC(C)C)C(=O)NCC(=O)O [Gg-CATH7] (H-KRVNWRKVGLGASYVMSWLG-OH) | 2 µM (≈ 4.62 µg/mL) | – | – | – | – | – | – | 4 µM | – | > 148 µg/mL | – | – | – | – | –
CC[C@H](C)[C@H](NC(=O)[C@H](CCCCN)NC(=O)[C@H](CCC(=O)O)NC(=O)[C@H](CCCCN)NC(=O)[C@H](CO)NC(=O)[C@H](CCCCN)NC(=O)[C@H](CCCNC(=N)N)NC(=O)[C@H](Cc1ccccc1)NC(=O)[C@H](Cc1ccccc1)NC(=O)[C@H](CC(=O)O)NC(=O)CNC(=O)[C@H](CC(C)C)NC(=O)[C@@H](N)CC(C)C)C(=O)NCC(=O)N[C@@H](CCCCN)C(=O)N[C@@H](CCC(=O)O)C(=O)N[C@@H](Cc1ccccc1)C(=O)N[C@@H](CCCCN)C(=O)N[C@@H](CCCNC(=N)N)C(=O)N[C@H](C(=O)N[C@H](C(=O)N[C@@H](CCC(N)=O)C(=O)N[C@@H](CCCNC(=N)N)C(=O)N[C@H](C(=O)N[C@@H](CCCCN)C(=O)N[C@@H](CC(=O)O)C(=O)N[C@@H](Cc1ccccc1)C(=O)N[C@@H](CC(C)C)C(=O)N[C@@H](CCCNC(=N)N)C(=O)N[C@@H](CC(N)=O)C(=O)N[C@@H](CC(C)C)C(=O)N[C@H](C(=O)N1CCC[C@H]1C(=O)N[C@@H](CCCNC(=N)N)C(=O)N[C@H](C(=O)N[C@@H](CCC(=O)O)C(=O)N[C@@H](CO)C(=O)O)[C@@H](C)O)C(C)C)[C@@H](C)CC)C(C)C)[C@@H](C)CC [LL-37] | – | – | – | – | – | – | – | – | – | – | – | 72 µg/mL | moderately cytotoxic | moderately cytotoxic | no evidence of tissue damage or peptide precipitation
VRLIVAVRIWRR-NH2 [IDR-1018, immunomodulatory peptide used as control] | – | – | – | – | – | – | – | – | – | – | – | – | low cytotoxicity | low cytotoxicity | –
